Legend:
EHMT1 = biological target: T1, EHMT1 (Homo sapiens, UniProt Q9H9B1); experiment: EHMT1 PEP; assay type: biochemical
T1 sequence (Q9H9B1 1-1298): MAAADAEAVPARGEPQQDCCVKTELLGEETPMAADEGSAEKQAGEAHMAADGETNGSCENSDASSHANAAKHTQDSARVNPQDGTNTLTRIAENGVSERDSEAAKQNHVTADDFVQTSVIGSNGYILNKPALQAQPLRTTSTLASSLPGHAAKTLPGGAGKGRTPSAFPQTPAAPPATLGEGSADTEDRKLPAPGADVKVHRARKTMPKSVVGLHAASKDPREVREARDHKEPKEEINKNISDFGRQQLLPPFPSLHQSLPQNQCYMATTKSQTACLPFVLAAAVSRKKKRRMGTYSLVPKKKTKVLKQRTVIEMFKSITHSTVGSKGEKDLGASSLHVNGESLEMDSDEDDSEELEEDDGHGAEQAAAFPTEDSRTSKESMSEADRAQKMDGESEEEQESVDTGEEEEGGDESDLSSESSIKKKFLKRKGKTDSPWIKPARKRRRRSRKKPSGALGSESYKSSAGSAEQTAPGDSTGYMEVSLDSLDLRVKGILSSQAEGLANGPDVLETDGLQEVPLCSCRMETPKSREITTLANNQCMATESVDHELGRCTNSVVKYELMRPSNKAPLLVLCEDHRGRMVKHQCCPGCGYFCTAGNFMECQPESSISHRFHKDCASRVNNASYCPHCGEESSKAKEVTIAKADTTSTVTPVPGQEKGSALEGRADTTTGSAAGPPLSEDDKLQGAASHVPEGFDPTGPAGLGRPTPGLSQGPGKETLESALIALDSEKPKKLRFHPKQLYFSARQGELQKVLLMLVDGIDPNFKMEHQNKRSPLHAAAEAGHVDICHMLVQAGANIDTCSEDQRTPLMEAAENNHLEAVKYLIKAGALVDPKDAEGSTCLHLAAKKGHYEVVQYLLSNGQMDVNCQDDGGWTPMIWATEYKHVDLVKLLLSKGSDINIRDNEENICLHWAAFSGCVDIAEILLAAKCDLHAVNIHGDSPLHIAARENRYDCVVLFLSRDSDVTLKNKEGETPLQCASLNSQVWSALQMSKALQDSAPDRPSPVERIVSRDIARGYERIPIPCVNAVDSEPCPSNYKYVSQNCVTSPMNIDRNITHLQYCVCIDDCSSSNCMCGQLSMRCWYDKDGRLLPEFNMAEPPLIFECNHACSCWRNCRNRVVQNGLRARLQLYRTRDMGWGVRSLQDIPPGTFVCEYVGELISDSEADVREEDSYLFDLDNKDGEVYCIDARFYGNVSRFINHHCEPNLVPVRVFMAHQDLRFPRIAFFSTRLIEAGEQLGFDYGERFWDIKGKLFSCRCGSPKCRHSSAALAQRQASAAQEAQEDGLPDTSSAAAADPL

human EHMT2 913-1193 = biological target: T2, human EHMT2 913-1193 (Homo sapiens, UniProt Q96KQ7); experiment: biochemical; settings: recombinant human EHMT2 913-1193, histone H3 1-15 peptide, 3H-SAM, balanced conditions; read-out: EHMT2 PEP (IC50 μM)
T2 construct: recombinant purified human EHMT2 913-1193, Viva; purchased Viva
T2 sequence (Q96KQ7 913-1193): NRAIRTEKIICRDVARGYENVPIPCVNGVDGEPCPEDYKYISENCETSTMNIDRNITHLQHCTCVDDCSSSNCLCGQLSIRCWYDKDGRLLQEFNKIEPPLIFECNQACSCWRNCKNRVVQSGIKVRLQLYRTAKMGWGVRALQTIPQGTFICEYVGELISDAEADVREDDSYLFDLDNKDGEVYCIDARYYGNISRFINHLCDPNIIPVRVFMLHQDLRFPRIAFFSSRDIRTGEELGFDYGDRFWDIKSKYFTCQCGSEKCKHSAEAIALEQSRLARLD
Excerpt: Biotinylated histone peptides were synthesized by Biopeptide and HPLC-purified to >95% purity. Streptavidin Flashplates and seals were purchased from PerkinElmer and 384 Well V-bottom Polypropylene Plates were from Greiner. ^3H-labeled S-adenosylmethionine (^3H-SAM) was obtained from American Radiolabeled Chemicals with a specific activity of 80 Ci/mmol. Unlabeled SAM and S-adenosylhomocysteine (SAH) were obtained from American Radiolabeled Chemicals and Sigma-Aldrich respectively. […] 384-well Flashplates and 96-well filter binding plates were read on a TopCount microplate reader (PerkinElmer). Compound serial dilutions were performed on a Freedom EVO (Tecan) and spotted into assay plates using a Thermo Scientific Matrix PlateMate (Thermo Scientific). Reagent cocktails were added by Multidrop Combi (Thermo Scientific).
General Procedure for EHMT2 Enzyme Assay on Histone Peptide Substrate. 10-point curves of test compounds were made on a Freedom EVO (Tecan) using serial 3-fold dilutions in DMSO, beginning at 2.5 mM (final top concentration of compound was 50 μM and the DMSO was 2%). A 1 μL aliquot of the inhibitor dilution series was spotted in a polypropylene 384-well V-bottom plate (Greiner) using a Thermo Scientific Matrix PlateMate (Thermo Scientific). […] Reactions were incubated for 60 minutes at room temperature and quenched with 10 μL per well of 400 μM unlabeled SAM, then transferred to a 384-well streptavidin Flashplate (PerkinElmer) and washed in a Biotek ELx-405 well washer with 0.1% Tween after 60 minutes. 384-well Flashplates were read on a TopCount microplate reader (PerkinElmer).

CCn1c(NC)nc2cc(OCCCN3CCCC3)c(OC)cc21 [Compound 42]
IC50 (EHMT1): < 0.1 µM | IC50 (human EHMT2 913-1193): < 0.1 µM

CNC1=Nc2cc(CNCCN3CCCC3)c(OC)cc2C12CCC2 [Compound 70]
IC50 (EHMT1): < 0.1 µM | IC50 (human EHMT2 913-1193): < 0.1 µM

CCNC1=Nc2cc(CNCCN3CCCC3)c(OC)cc2C12CCC2 [Compound 71]
IC50 (EHMT1): < 0.1 µM | IC50 (human EHMT2 913-1193): < 0.1 µM

CCNC1=Nc2cc(CNCCN3CCC3)c(OC)cc2C12CCC2 [Compound 72]
IC50 (EHMT1): < 0.1 µM | IC50 (human EHMT2 913-1193): < 0.1 µM

CCCNC1=Nc2cc(CNCCN3CCCC3)c(OC)cc2C12CCC2 [Compound 73]
IC50 (EHMT1): < 0.1 µM | IC50 (human EHMT2 913-1193): < 0.1 µM

CNC1=Nc2cc(C#CCN3CCCC3)c(OC)cc2C12CCC2 [Compound 74]
IC50 (EHMT1): < 0.1 µM | IC50 (human EHMT2 913-1193): < 0.1 µM

CNC1=Nc2cc(C#CCN3CCCCC3)c(OC)cc2C12CCC2 [Compound 75, 5′-methoxy-N-methyl-6′-(3-(piperidin-1-yl)prop-1-yn-1-yl)spiro[cyclobutane-1,3′-indol]-2′-amine]
IC50 (EHMT1): < 0.1 µM | IC50 (human EHMT2 913-1193): < 0.1 µM

COc1cc2c(cc1CNCCN1CCCC1)N=C(NC1CCOCC1)C21CCC1 [Compound 76]
IC50 (EHMT1): 1 to 10 µM | IC50 (human EHMT2 913-1193): 1 to 10 µM

CNC1=Nc2cc(C#CC(C)N3CCCC3)c(OC)cc2C12CCC2 (centres unmarked) [Compound 84]
IC50 (EHMT1): < 0.1 µM | IC50 (human EHMT2 913-1193): < 0.1 µM

CNC1=Nc2cc(C#C[C@H](C)N3CCCC3)c(OC)cc2C12CCC2 [Compound 85]
IC50 (EHMT1): < 0.1 µM | IC50 (human EHMT2 913-1193): < 0.1 µM

CNC1=Nc2cc(C#C[C@@H](C)N3CCCC3)c(OC)cc2C12CCC2 [Compound 86]
IC50 (EHMT1): 0.1 to 1 µM | IC50 (human EHMT2 913-1193): 0.1 to 1 µM

CNC1=Nc2cc(C#CC(C)N3CCCCC3)c(OC)cc2C12CCC2 (centres unmarked) [Compound 92]
IC50 (EHMT1): < 0.1 µM | IC50 (human EHMT2 913-1193): < 0.1 µM

COCCNC1=Nc2cc(C#CCN3CCCCC3)c(OC)cc2C12CCC2 [Compound 99]
IC50 (EHMT1): < 0.1 µM | IC50 (human EHMT2 913-1193): < 0.1 µM

CNC1=Nc2cc(C#CCN3CCC(F)C3)c(OC)cc2C12CCC2 (centres unmarked) [Compound 100]
IC50 (EHMT1): 0.1 to 1 µM | IC50 (human EHMT2 913-1193): 0.1 to 1 µM

CNc1nc2cc(CNCCN3CCCC3)c(Cl)cc2n1C(C)C [Compound 138]
IC50 (EHMT1): 0.1 to 1 µM | IC50 (human EHMT2 913-1193): 1 to 10 µM

CNc1nc2cc(CNCCN3CCCC3)c(C)cc2n1C(C)C [Compound 139]
IC50 (EHMT1): 0.1 to 1 µM | IC50 (human EHMT2 913-1193): 1 to 10 µM
